According to US20070142396A1, “Treatment of pain with 1-[3-[4-(3-chlorophenyl)-1-piperazinyl]propyl]-5-methoxy-3,4-dihydro-2(1H)-quinolone or salt thereof” (Vela Pharmaceuticals, Inc., priority 2005, published 2007):

What was measured:
[1] = system: rats with spinal nerve ligature (Chung neuropathic pain model); assay: Chung neuropathic pain model, tactile stimulation, second experiment (Example 3); type: in vivo, rat; conditions: acute; for effect on force inducing paw withdrawal: p.o.
Description: For tactile stimulation, the animal was placed under an inverted Plexiglas® box (17×11×14 cm) on a grid floor. The tip of an electronic Von Frey probe (Bioseb, Model 1610, Chaville, France) was applied with increasing pressure to the non-lesioned hindpaw or the lesioned hindpaw. The force required to induce paw withdrawal was automatically recorded. This procedure was carried out three times for each paw, and the mean force per paw was calculated to provide basic scores per animal.
The rats used in this experiment were the same rats used in Example 2. The materials and methods for this experiment were identical to those for Example 2 with the following exceptions: there was a 1-week washout between the two experiments, and the rats weighed 290-403 g at the start of this experiment. Prior to receiving drug treatment, all animals were submitted to tactile stimulation and assigned to treatment groups matched on the basis of their pain response. No account was taken of the treatment administered during the first experiment in assigning animals to treatment groups for this experiment.
All of the substances were administered orally. Morphine, dissolved in distilled water, was administered at 128 mg/kg dose p.o. Rats were tested 30 minutes, 1 hour, 2 hours, and 4 hours after administration of the substances.

[2] = system: rats with L5 spinal nerve ligation (SNL model); assay: Spinal nerve ligation (L5) neuropathic pain model, mechanical threshold with von Frey filaments (Example 4); type: in vivo, rat; conditions: 100 mg/kg oral
Source text: A total of 18 Sprague-Dawley (CD sub-strain) young adult (weight: 150-175 g) male rats were purchased from Harlan Sprague Dawley Company (Indianapolis, Ind.), Alabama colony. The rats were kept three per cage and had free access to food and water. Animals were kept in a room with a reversed light-dark cycle (light: 8:00 PM-8:00 AM) for 1 week before experimental manipulations. Ten rats were allocated to the present study. Eight rats were allocated to the study of Example 5, below.
The spinal nerve ligation (SNL) model of neuropathic pain was produced in all rats as described by Kim and Chung (Pain, 50, 355-363, 1992). Briefly, under gaseous anesthesia using halothane (3% for induction and 1.5% for maintenance) in oxygen, the left L5 spinal nerve was exposed by removing the paraspinal muscles and the transverse process of the L6 vertebra. The very proximal portion of the L5 spinal nerve was tightly ligated with 6-0 silk suture. The wounds were closed and anesthesia was discontinued. Rats were kept on a heated blanket until they had completely recovered from anesthesia.
OPC-14523 was dispersed in 0.5% tragacanth in distilled water at 20 mg/ml. It was administered as a oral injection in a dose of 100 mg/kg body weight. Gabapentin was prepared at 10 mg/ml in saline and was administered at 50 mg/kg body weight i.p. Gabapentin is a drug that was originally developed as an anticonvulsant but is now widely used as an analgesic for neuropathic pain (Abdi et al., Anesthesia & Analgesia 87:1360-1366 (1998)).
Ten rats were utilized in a Latin-square-design study comparing the activity of OPC-14523 and other compounds against neuropathic pain. Behavioral tests were conducted twice (1 day and 1 hour) before, as well as 1 and 4 days after, the neuropathic surgery. […] The ten rats were randomly divided into five groups of two rats each. […]
This procedure was repeated five times. […] The result was that all ten animals received each of the indicated five compounds in random order and then had mechanical thresholds determined at the indicated times.
Behavioral tests were conducted in a non-blind fashion. The foot withdrawal threshold to mechanical stimuli applied to the paw (mechanical threshold) was measured, as an indicator of mechanical sensitivity of the affected paw. The foot withdrawal threshold was measured using von Frey filaments. […] The mechanical thresholds were measured by using the “up-and-down” method (Chaplan et al., J. Neurosci. Methods 53(1):55-63, 1994), following the procedures described in previous studies (Park et al., Pain 87(2):171-179, 2000; Xie et al., J. Pain 2(5):270-278, 2001; Baik et al., J. Pain 4:212-221, 2003). […]

COc1cccc2c1CCC(=O)N2CCCN1CCN(c2cccc(Cl)c2)CC1 [OPC-14523, 1-[3-[4-(3-chlorophenyl)-1-piperazinyl]propyl]-5-methoxy-3,4-dihydro-2(1H)-quinolone] was tested, and the “change of force inducing paw withdrawal vs vehicle” value (“change” for short) ([1]; 30 mg/kg p.o., lesioned paw, 30 minutes, p=0.10) was “+46%”, the “change” value ([1]; 30 mg/kg p.o., lesioned paw, 2 hours, p=0.11) was “+79%” and the “change” value ([1]; 100 mg/kg p.o., lesioned paw, 30 minutes, p=0.11) was “+76%”. The “effect on force inducing paw withdrawal” value ([1]; lesioned paw) was “did not significantly affect”, the “effect on force inducing paw withdrawal” value ([1]; non-lesioned paw) was “no clear effects” and the “level of mechanical threshold reached relative to level prior to ligation” value [2] was “comparable to the level observed prior to ligation”. The “effect on mechanical threshold of the lesioned paw for foot withdrawals” value ([2]; 0.5-6 hours) was “significantly increased”.
